{"source": "paper PMC5852599", "about": "“Microfluidic Devices for Drug Delivery Systems and Drug Screening” (Genes, 2018)", "origin": "cited, not measured here", "test_system": "breast cancer cells (Her-2)", "set-up": "method as in PMID 20237849", "settings": "3D tumor spheroid in alginate hydrogel, compared to 2D cell culture"}
{"molecule": "COc1cccc2c1C(=O)c1c(O)c3c(c(O)c1C2=O)C[C@@](O)(C(=O)CO)C[C@@H]3O[C@H]1C[C@H](N)[C@H](O)[C@H](C)O1", "note": "[doxorubicin]", "values": [{"measurement": "effectiveness on cell viability and proliferation", "result": "lower effectiveness"}]}
